Consider 14 compounds from ChEMBL document CHEMBL1135121, “Design and synthesis of some new pyranoxanthenone aminoderivatives with cytotoxic activity” (Bioorg Med Chem Lett, 2002).

The subject of one experiment is A549. In words: Inhibitory concentration of compound against proliferation of lung carcinoma A549 cell line. The experiment is classed as functional, cell-based. The note with it: Homo sapiens.
For a further experiment, the system named is Calf thymus DNA. Put plainly: In vitro calf thymus DNA binding affinity by ethidium bromide displacement. The experiment is classed as nucleic-acid assay, Bos taurus.
Experiment [1] deals with HT-29. Put plainly: Inhibitory concentration of compound against proliferation of colon carcinoma HT-29 cell line. Particulars: Homo sapiens. The experiment is classed as functional, cell-based.
The subject of experiment [2] is HT-29. In words: Cell-cycle-phase distribution of HT-29 cell-cultures exposed to 10 uM concentration of compound for 22 hr in G0/G1 phase. The experiment is classed as functional, Homo sapiens.
For experiment [3], the system named is HT-29. Put plainly: Cell-cycle-phase distribution of HT-29 cell-cultures exposed to 10 uM concentration of compound for 22 hr in G2/M phase. The experiment is classed as functional, Homo sapiens.
For experiment [4], the system named is HT-29. In words: Cell-cycle-phase distribution of HT-29 cell-cultures exposed to 10 uM concentration of compound for 22 hr in S phase. The experiment is classed as functional, Homo sapiens.
The next experiment has as its system L1210. Put plainly: Inhibitory concentration of compound against proliferation of murine leukemia L1210 cell line. The experiment is classed as functional, cell-based. Particulars: Mus musculus.
In a further experiment the test system is Nucleic Acid. In words: In vitro DNA binding affinity for calf thymus DNA was determined using ethidium bromide displacement assay; Not detected. The experiment is classed as nucleic-acid assay, Bos taurus.

In the case of `CCN(CC)CCNCc1cc2c(c3oc4ccccc4c(=O)c13)C=CC(C)(C)O2.O=C(O)/C=C/C(=O)O`, the IC50 (commonly the concentration needed to halve the response being measured) came out at 11 µM with A549, 1.7 µM in the experiment with HT-29 [1] and 2 µM with L1210. Further, the EC50 (in general, the concentration giving half of the maximal effect) in the experiment with Calf thymus DNA stood at 42 µM. In addition, the Activity with HT-29 [2] worked out at 79.7; with HT-29 [3], 7.77; in the experiment on HT-29 [4] it was 12.53.

For the compound `CCN(CC)CCNc1cc2c(c3oc4ccccc4c(=O)c13)C=CC(C)(C)O2`, the IC50 was greater than 100 µM with A549, 42 µM with HT-29 [1] and 8.4 µM in the experiment with L1210. Besides, the midpoint of the response with Calf thymus DNA, the EC50, lay at 88 µM.

In the case of `CN(C)CCNC(=O)c1cc2c(c3oc4ccccc4c(=O)c13)C=CC(C)(C)O2`, the concentration for half-maximal inhibition (IC50) was determined as 90 µM in the experiment on A549, 12 µM with HT-29 [1] and 16 µM in the experiment with L1210. In the experiment on Calf thymus DNA, the response was half-maximal at 197 µM (EC50).

`CCN(CC)CCNC(=O)c1cc2c(c3oc4ccccc4c(=O)c13)C=CC(C)(C)O2`: the IC50 stood at 60 µM in the experiment with A549, 30 µM in the experiment with HT-29 [1] and 10 µM with L1210. The EC50 with Calf thymus DNA was 150 µM.

For the compound `CCN(CC)CCNC(=O)c1c2c(cc3oc4ccccc4c(=O)c13)OC(C)(C)C=C2`, the IC50 worked out at 51 µM with A549, 40 µM with HT-29 [1] and 9 µM in the experiment on L1210. Moreover, the response in the experiment with Calf thymus DNA was half-maximal at 100 µM (EC50). Besides, the figures for the Activity in the experiment on HT-29 [2], in the experiment on HT-29 [3] and in the experiment on HT-29 [4] were 61.24, 37.7 and 1.06, respectively.

For `CN(C)CCNC(=O)c1c2c(cc3oc4ccccc4c(=O)c13)OC(C)(C)C=C2`, the IC50 with A549 was found to be 57 µM; in the experiment with HT-29 [1] it was 60 µM; in the experiment with L1210, 12 µM. This compound displayed an EC50 in the experiment on Calf thymus DNA of 107 µM.

In the case of `CN(C)CCNc1c2c(cc3oc4ccccc4c(=O)c13)OC(C)(C)C=C2.Cl`, the results for the IC50 in the experiment with A549, in the experiment on HT-29 [1] and with L1210 were 30 µM, 23 µM and 5.8 µM, respectively. In addition, in the experiment on Nucleic Acid, the EC50 result is listed as “Not detected”.

As to `CN(C)CCNc1cc2c(c3oc4ccccc4c(=O)c13)C=CC(C)(C)O2`, the IC50 was 23 µM with A549, 8 µM in the experiment on HT-29 [1] and 7.1 µM in the experiment with L1210. For the same compound, the EC50 in the experiment with Calf thymus DNA came out at 89 µM.

On to `CCN(CC)CCNc1c2c(cc3oc4ccccc4c(=O)c13)OC(C)(C)C=C2.Cl`, for which the IC50 with A549 stood at 25 µM; in the experiment with HT-29 [1], 8 µM; with L1210, 5.1 µM. For the same compound, the EC50 result with Nucleic Acid was “Not detected”.

For `CN(C)CCNCc1cc2c(c3oc4ccccc4c(=O)c13)C=CC(C)(C)O2`, the IC50 with A549 is 44 µM; with HT-29 [1] it was 8.8 µM; with L1210, 4.1 µM. This compound showed an EC50 in the experiment with Calf thymus DNA of 74 µM.

`CN(C)CCNCc1c2c(cc3oc4ccccc4c(=O)c13)OC(C)(C)C=C2`: the IC50 stood at 25 µM in the experiment on A549, 6.4 µM in the experiment on HT-29 [1] and 4 µM with L1210. This compound had an EC50 in the experiment with Calf thymus DNA of 39 µM.

Consider `CCN(CC)CCNCc1c2c(cc3oc4ccccc4c(=O)c13)OC(C)(C)C=C2.Cl`, for which the results for the IC50 in the experiment with A549, in the experiment on HT-29 [1] and in the experiment on L1210 were 8 µM, 2 µM and 2 µM, respectively. Also, the EC50 in the experiment on Calf thymus DNA stood at 30 µM. In addition, the Activity is reported as 69.92 in the experiment on HT-29 [2], 8.86 in the experiment on HT-29 [3] and 21.22 with HT-29 [4].

Regarding `COc1cc2c(c3c1c(=O)c1ccccc1n3C)C=CC(C)(C)O2` [ACRONINE], the figures for the IC50 in the experiment on A549, with HT-29 [1] and with L1210 were greater than 100 µM, greater than 100 µM and 27 µM, respectively. This compound gave an EC50 in the experiment with Calf thymus DNA of 82 µM.

For `O=C1c2c(O)ccc(O)c2C(=O)c2c(NCCNCCO)ccc(NCCNCCO)c21` [MITOXANTRONE], the results for the IC50 with A549, with HT-29 [1] and in the experiment on L1210 were 0.3 µM, 8 µM and 0.04 µM, respectively. Besides, the concentration for a half-maximal effect (EC50) in the experiment with Calf thymus DNA was 0.4 µM.
